Tests used:
[1] = test system: spring wheat (TRZAS); assay type: in vivo, Triticum aestivum
Procedure: (§1) The plants were grown for 7-36 days (d) in a greenhouse with an approximate 14-hour (h) photo-period which was maintained at about 23° C. during the day and 22° C. during the night. Nutrients and water were added on a regular basis and supplemental lighting was provided with overhead metal halide 1000-Watt lamps as necessary. The plants were employed for testing when they reached the second or third true leaf stage.
(§2) The emulsifiable concentrates also included a safener, cloquintocet-mexyl, at 120 grams active ingredient per liter (g ai/L), unless otherwise noted below.
(§3) Control plants were sprayed in the same manner with the solvent blank. All pyridine carboxylate herbicide (component a) application rates are given as “g ae/ha” and all ALS inhibitor (component b) application rates are given as “g ai/ha.”
(§4) The treated plants and control plants were placed in a greenhouse as described above and watered by sub-irrigation to prevent wash-off of the test compounds. After 20-22 d, the condition of the test plants as compared with that of the control plants was determined visually and scored on a scale of 0 to 100 percent where 0 corresponds to no injury and 100 corresponds to complete kill.

[2] = test system: spring barley (HORVS); assay type: in vivo, Hordeum vulgare; settings: Cloransulam 17.5 g/ha
Procedure: as §1, §2, §3, §4

[3] = test system: common lambsquarters (CHEAL, Chenopodium album L.); test: Greenhouse postemergence herbicidal effect; assay type: in vivo
Procedure: (§5) Seeds of the desired test plant species were planted in a 90:10% v/v (volume/volume) mixture of PRO-MIX® BX (Premier Tech Horticulture, Quakertown, PA, USA) and PROFILE® GREENS GRADE™ (Profile Products LLC, Buffalo Grove, IL, USA) planting mixture, which typically has a pH of 5.2 to 6.2 and an organic matter content of at least 50 percent, in plastic pots with a surface area of 103.2 square centimeters (cm^2). […] The plants were grown for 7-36 days (d) in a greenhouse with an approximate 14-hour (h) photo-period which was maintained at about 23° C. during the day and 22° C. during the night. Nutrients and water were added on a regular basis and supplemental lighting was provided with overhead metal halide 1000-Watt lamps as necessary. The plants were employed for testing when they reached the second or third true leaf stage.
(§6) Emulsifiable concentrates of each of each pyridine carboxylate herbicide (Compound A or Compound B) were prepared at 100 grams acid equivalent per liter (g ae/L). The emulsifiable concentrates also included a safener, cloquintocet-mexyl, at 120 grams active ingredient per liter (g ai/L), unless otherwise noted below. An aliquot of each emulsifiable concentrate was placed in a 25 mL glass vial and diluted with an aqueous mixture of 1.25% (v/v) ACTIROB® B esterified rapeseed oil (Bayer Crop Science, Research Triangle Park, NC, USA) or MSO® Concentrate with LECI-TECH® methylated soybean oil (Loveland Products, Loveland, CO, USA) to obtain concentrated stock solutions at the highest application rate for each herbicide, based upon a 12 milliliter (mL) application volume at a rate of 187 liters per hectare (L/ha). The concentrated stock solutions were further diluted with an aqueous mixture of 1.25% v/v ACTIROB® B or MSO® Concentrate with LECI-TECH® to obtain stock solutions at reduced application rates for each herbicide. Spray solutions of the herbicide combinations (Compound A or Compound B plus ALS herbicide) were prepared by adding weighed amounts or aliquots of the ALS herbicides to the stock solutions of Compound A or Compound B to form 12-mL spray solutions in two- or three-way combinations.
(§7) The spray solutions were applied to the plant material with an overhead Mandel track sprayer equipped with 8002E nozzles calibrated to deliver 187 L/ha over an application area of 0.503 square meters (m^2) at a spray height of 18 inches (43 centimeters (cm)) above the average plant canopy. Control plants were sprayed in the same manner with the solvent blank. All pyridine carboxylate herbicide (component a) application rates are given as “g ae/ha” and all ALS inhibitor (component b) application rates are given as “g ai/ha.”
as §4

[4] = test system: kochia (KCHSC, Kochia scoparia); test: Greenhouse postemergence herbicidal effect; assay type: in vivo
Procedure: as §5, §6, §7, §4

[5] = test system: wild mustard (SINAR, Sinapis arvensis); test: Greenhouse postemergence herbicidal effect; assay type: in vivo
Procedure: as §1, §2, §3, §4

[6] = test system: Russian thistle (SASKR, Salsola kali); test: Greenhouse postemergence herbicidal effect; assay type: in vivo
Procedure: as §1, §2, §3, §4

[7] = test system: pigweed (AMARE, Amaranthus retroflexus); test: Greenhouse postemergence herbicidal effect; assay type: in vivo
Procedure: as §1, §2, §3, §4

[8] = test system: spring rape (BRSNN, Brassica napus); test: Greenhouse postemergence herbicidal effect; assay type: in vivo
Procedure: as §1, §2, §3, §4

[9] = test system: wild buckwheat (POLCO, Polygonum convolvulus); test: Greenhouse postemergence herbicidal effect; assay type: in vivo
Procedure: as §1, §2, §3, §4

[10] = test system: wild chamomile (MATCH, Matricaria chamomilla); test: Greenhouse postemergence herbicidal effect; assay type: in vivo
Procedure: as §1, §2, §3, §4

[11] = test system: large crabgrass (DIGSA, Digitaria sanguinalis); test: Greenhouse postemergence herbicidal effect; assay type: in vivo; settings: DIGSA; Pyriminobac methyl 30 g/ha
Text: (§8) Seeds of the desired test plant species were planted in a 90:10% v/v (volume/volume) mixture of PRO-MIX® BX (Premier Tech Horticulture, Quakertown, PA, USA) and PROFILE® GREENS GRADE™ (Profile Products LLC, Buffalo Grove, IL, USA) planting mixture, which typically has a pH of 5.2 to 6.2 and an organic matter content of at least 50 percent, in plastic pots with a surface area of 103.2 square centimeters (cm^2). In some aspects, to ensure good germination and healthy plants, a fungicide treatment and/or other chemical or physical treatment was applied. The plants were grown for 7-36 days (d) in a greenhouse with an approximate 14-hour (h) photo-period which was maintained at about 23° C. during the day and 22° C. during the night. Nutrients and water were added on a regular basis and supplemental lighting was provided with overhead metal halide 1000-Watt lamps as necessary. The plants were employed for testing when they reached the second or third true leaf stage.
as §6, §7, §4

[12] = test system: broad-leaf dock (RUMOB, Rumex obtusifolius); test: Greenhouse postemergence herbicidal effect; assay type: in vivo; settings: RUMOB; Pyriminobac methyl 30 g/ha
Text: as §8, §6, §7, §4

[13] = test system: chickweed (STEME, Stellaria media); test: Greenhouse postemergence herbicidal effect; assay type: in vivo; settings: STEME; Pyriminobac methyl 30 g/ha
Procedure: as §1, §2, §3, §4

[14] = test system: wild pansy (VIOTR, Viola tricolor); test: Greenhouse postemergence herbicidal effect; assay type: in vivo
Procedure: as §1, §2, §3, §4

[15] = test system: Canadian thistle (CIRAR, Cirsium arvense); test: Greenhouse postemergence herbicidal effect; assay type: in vivo
Procedure: as §1, §2, §3, §4

[16] = test system: winter rape (BRSNW, Brassica napus); test: Greenhouse postemergence herbicidal effect; assay type: in vivo; settings: Amidosulfuron 45 g/ha
Procedure: as §1, §2, §3, §4

`CCOc1nc(F)cc2nc(S(=O)(=O)Nc3c(Cl)cccc3C(=O)O)nn12` [Cloransulam, cloransulam] was tested, and the “% visual injury Obs” value ([1]; Cloransulam 17.5 g/ha) was 0%, the “% visual injury Obs” value [2] was 15% and the “% visual injury Obs” value ([3]; Cloransulam 17.5 g/ha) was 0%. For the same molecule, the “% visual injury Obs” value ([4]; Cloransulam 17.5 g/ha) was 0%, the “% visual injury Obs” value ([5]; Cloransulam 17.5 g/ha) was 97% and the “% visual injury Obs” value ([6]; Cloransulam 17.5 g/ha) was 25%. For the same molecule, the “% visual injury Obs” value ([7]; Cloransulam 17.5 g/ha) was 15%, the “% visual injury Obs” value ([8]; Cloransulam 17.5 g/ha) was 100% and the “% visual injury Obs” value ([9]; Cloransulam 17.5 g/ha) was 80%. For the same molecule, the “% visual injury Obs” value ([10]; Cloransulam 17.5 g/ha) was 40%.
In the case of pyriminobac, the “Obs % visual injury” value ([1]; TRZAS, Pyriminobac methyl 30 g/ha) is reported as 0%, the “Obs % visual injury” value ([3]; CHEAL, Pyriminobac methyl 30 g/ha) is reported as 20% and the “Obs % visual injury” value ([4]; KCHSC, Pyriminobac methyl 30 g/ha) is reported as 33%. The “Obs % visual injury” value [11] was 0%, the “Obs % visual injury” value [12] was 65% and the “Obs % visual injury” value [13] was 15%. The “Obs % visual injury” value ([7]; AMARE, Pyriminobac methyl 30 g/ha) was 93%, the “Obs % visual injury” value ([14]; VIOTR, Pyriminobac methyl 30 g/ha) was 5% and the “Obs % visual injury” value ([9]; POLCO, Pyriminobac methyl 30 g/ha) was 80%. The “Obs % visual injury” value ([15]; CIRAR, Pyriminobac methyl 30 g/ha) was 8%.
With `CC(C)C1(C)N=C(c2ncccc2C(=O)O)NC1=O` (stereo not shown) [Imazapyr, imazapyr] the pest or weed control at 140 g/ha ([4]; Bassia scoparia, post-emergence, 140 g/ha, read-out: % visual injury, Obs) was 54%, the “% visual injury, Obs” value ([14]; 140 g/ha) was 63% and the pest or weed control at 140 g/ha ([15]; Cirsium arvense, post-emergence, 140 g/ha, read-out: % visual injury, Obs) was 80%.
In the case of `COc1cc(OC)nc(NC(=O)NS(=O)(=O)N(C)S(C)(=O)=O)n1` [Amidosulfuron, amidosulfuron], the “% visual injury” value ([3]; Amidosulfuron 45 g/ha) is reported as 25%, the “% visual injury” value ([4]; Amidosulfuron 45 g/ha) is reported as 5% and the pest or weed control at 22.5 g/ha ([4]; Bassia scoparia, post-emergence, 22.5 g/ha, read-out: % visual injury, Obs) is reported as 15%. For the same molecule, the “% visual injury” value ([5]; Amidosulfuron 45 g/ha) was 82%, the “% visual injury” value ([7]; Amidosulfuron 45 g/ha) was 100% and the “% visual injury, Obs” value ([8]; 22.5 g/ha) was 98%. For the same molecule, the “% visual injury, Obs” value ([14]; 22.5 g/ha) was 18%, the “% visual injury” value ([9]; Amidosulfuron 45 g/ha) was 55% and the “% visual injury” value [16] was 98%. The “% visual injury” value ([15]; Amidosulfuron 45 g/ha) was 18%, the pest or weed control at 22.5 g/ha ([15]; Cirsium arvense, post-emergence, 22.5 g/ha, read-out: % visual injury, Obs) was 15% and the “% visual injury” value ([10]; Amidosulfuron 45 g/ha) was 50%.
In the case of `CCOc1nc(F)cc2nc(S(=O)(=O)Nc3c(Cl)cccc3Cl)nn12` [Diclosulam, diclosulam], the “% visual injury Obs” value ([3]; Diclosulam 17.5 g/ha) is reported as 0%, the “% visual injury Obs” value ([4]; Diclosulam 17.5 g/ha) is reported as 0% and the “% visual injury Obs” value ([5]; Diclosulam 17.5 g/ha) is reported as 100%. The “% visual injury Obs” value ([6]; Diclosulam 17.5 g/ha) was 25%, the “% visual injury Obs” value ([7]; Diclosulam 17.5 g/ha) was 85% and the “% visual injury Obs” value ([8]; Diclosulam 17.5 g/ha) was 100%. For the same molecule, the “% visual injury Obs” value ([9]; Diclosulam 17.5 g/ha) was 98% and the “% visual injury Obs” value ([10]; Diclosulam 17.5 g/ha) was 68%.
